Results taken from patent US8936806B2, “Periostin induces proliferation of cardiomyocytes and promotes cardiac regeneration” (Children's Medical Center Corporation, priority 2007, dated 2015).

Legend:
[1] = system: atrial natriuretic factor (ANF); assay: Transcription of atrial natriuretic factor by RT-PCR in neonatal cardiomyocytes; assay type: cell-based, rat; conditions: 72 hr stimulation
Description: RNA was prepared using Trizol reagent (Invitrogen) from neonatal rat ventricular cardiomyocytes after 72 hr of stimulation. Complementary DNA was synthesized from 2 μg RNA with the SuperScriptIII kit (Invitrogen) using oligo-dT primers. One μL cDNA was used as template for 20 μL PCR-reactions (95° C. for 2 min, 30 cycles of 95° C. for 2 min, 55° C. for 2 min, 72° C. for 5 min, followed by 72° C. for 10 min). Oligonucleotide primers used for detection of ANF were F: 5′-[…]-3′ (Seq ID No. 2), R: 5′-[…]-3′ (Seq ID No. 3), β-actin were F: 5′-[…]-3′ (Seq ID No. 4), R: 5′-[…]-3′ (Seq ID No. 5), […] were F: 5′-[…]-3′ (Seq ID No. 6), R: 5′-[…]-3′ (Seq ID No. 7); SMA were F: 5′-[…]-3′ (Seq ID No. 8), R: 5′-[…]-3′ (Seq ID No. 9); SERCA2 were F: 5′-[…]-3′ (Seq ID No. 10), R: 5′-[…]-3′ (Seq ID No. 11), and for GAPDH: 5′-[…]-3′ (Seq ID No. 12), R: 5′-[…]-3′ (Seq ID No. 13).

[2] = system: adult ventricular cardiomyocytes; assay: Transcription of fetal gene program (RT-PCR) in adult ventricular cardiomyocytes; assay type: cell-based, rat
[3] = system: differentiated cardiomyocytes; assay: Hypertrophy by [3H]leucine uptake; assay type: cell-based, rat; conditions: phenylephrine 10 mM [sic]; all time points tested
Source text: Induction of the fetal gene program is accompanied by increased protein synthesis leading to cardiomyocyte hypertrophy. We assessed cardiomyocyte hypertrophy by measuring uptake of [^3H]leucine.

[4] = system: primary adult rat ventricular cardiomyocytes; assay: Cytokinesis (aurora B kinase) in primary adult rat ventricular cardiomyocytes; assay type: cell-based; conditions: 9 days stimulation
Source text: (§1) Primary neonatal rat ventricular cardiomyocytes were isolated using the Neomyts kit (Cellutron, Highland Park, N.J.), seeded at a density of 10^5 cells/cm^2 onto gelatin-coated cover slips, stimulated for 3 days, and labeled with BrdU for the terminal 2 days. Primary adult ventricular cardiomyocytes were isolated from male (300 gm) Wistar rats (Charles River Laboratories) and maintained as described (Engel, F. B. et al. p38 MAP kinase inhibition enables proliferation of adult mammalian cardiomyocytes. Genes Dev 19, 1175-87 (2005)). Adult cardiomyocytes were stimulated daily for 9 days and labeled with 30 μM BrdU for the terminal 3 days. Cardiomyocytes were stimulated with periostin (500 ng/mL) and FGF (100 ng/mL). Inhibiting antibodies were added at a concentration of 10 μg/mL, cRGD at 10 μM, U0126 at 10 μM, PD98059 at 1 μM, LY294002 at 10 μM, and Wortmannin at 0.1 μM 30 min prior to stimulation. The vehicle used to dissolve factors or chemicals was added to unstimulated samples, which were then processed together with the test samples.
(§2) DNA-synthesis was analyzed by visualization of BrdU uptake and cytokinesis was determined by detection of the cleavage furrow and the midbody with an antibody against aurora B kinase as described (Engel, F. B. et al. p38 MAP kinase inhibition enables proliferation of adult mammalian cardiomyocytes. Genes Dev 19, 1175-87 (2005)). Signals were visualized with secondary antibodies conjugated to Alexa 488, Alexa 546, Alexa 594, and Alexa 647 (Invitrogen). Nuclei were visualized with 4′,6′-diamidino-2-phenylindole (DAPI, Invitrogen). For image acquisition, the value for γ was set at 1 and the lookup table settings were linear.

[5] = system: primary adult rat ventricular cardiomyocytes; assay: DNA synthesis (BrdU uptake, immunofluorescence) in primary adult rat ventricular cardiomyocytes; assay type: cell-based
Source text: Primary neonatal rat ventricular cardiomyocytes were isolated using the Neomyts kit (Cellutron, Highland Park, N.J.), seeded at a density of 10^5 cells/cm^2 onto gelatin-coated cover slips, stimulated for 3 days, and labeled with BrdU for the terminal 2 days. Primary adult ventricular cardiomyocytes were isolated from male (300 gm) Wistar rats (Charles River Laboratories) and maintained as described (Engel, F. B. et al. p38 MAP kinase inhibition enables proliferation of adult mammalian cardiomyocytes. Genes Dev 19, 1175-87 (2005)). Adult cardiomyocytes were stimulated daily for 9 days and labeled with 30 μM BrdU for the terminal 3 days. Cardiomyocytes were stimulated with periostin (500 ng/mL) and FGF (100 ng/mL). […] The vehicle used to dissolve factors or chemicals was added to unstimulated samples, which were then processed together with the test samples. DNA-synthesis was analyzed by visualization of BrdU uptake and cytokinesis was determined by detection of the cleavage furrow and the midbody with an antibody against aurora B kinase as described (Engel, F. B. et al. p38 MAP kinase inhibition enables proliferation of adult mammalian cardiomyocytes. Genes Dev 19, 1175-87 (2005)). Signals were visualized with secondary antibodies conjugated to Alexa 488, Alexa 546, Alexa 594, and Alexa 647 (Invitrogen). […] For image acquisition, the value for γ was set at 1 and the lookup table settings were linear. Primary adult rat ventricular cardiomyocytes were grown on gridded cover slips (Electron Microscopy Services, Ft. Washington, Pa.) and imaged in phase contrast at 10× magnification. Cardiomyocytes were transduced with an adenovirus leading to nuclear expression of histone2B-GFP (Shi, Q. & King, R. W. Nature 437, 1038-42 (2005)) under control of the chicken troponin T promoter ([…]. Am J Physiol Cell Physiol 286, […]-64 (2004)). Nuclei were visualized at 10× magnification with a mercury-arc lamp dimmed to 1.5% with a neutral density filter. […] Images of BrdU-positive cardiomyocytes were matched with the corresponding images from before stimulation. For quantification, differentiated cardiomyocytes were defined as striated rod-shaped structures with length/width ratio>1.5.

[6] = system: primary neonatal rat ventricular cardiomyocytes; assay: DNA synthesis, mitosis and cytokinesis in primary neonatal rat ventricular cardiomyocytes; assay type: cell-based; conditions: periostin plus FGF
Source text: as §1, §2

Compound	transcription of atrial natriuretic factor (ANF) [1]	transcription of SERCA2 [2]	transcription of β-MHC, SMA and ANF [2]	[3H]leucine uptake (hypertrophy) [3]	cytokinesis, of all differentiated cardiomyocytes [4]	cardiomyocyte DNA synthesis ([5]; 9 days stimulation (periostin 500 ng/mL, FGF 100 ng/mL), BrdU terminal 3 days)	effect on periostin-induced cardiomyocyte DNA synthesis when added ([5]; FGF 100 ng/ml, SB203580 5 mM or 10 mM as printed)	effect of co-stimulation with periostin on DNA synthesis [6]
CNC[C@H](O)c1cccc(O)c1 [phenylephrine, reference compound]	induced	slightly reduced	increased transcription	induced				
FGF: FGF1 provided by R&D Systems; known stimulus of cardiomyocyte DNA synthesis	induced				0.3±0.1%	1.3±0.6%	increased	additive effect
